Converted amounts (≈) assume the structure as drawn.
Tests used:
Staphylococcus aureus [1] = assay: Antibacterial activity against Staphylococcus aureus ATCC 29213 measured after 16 to 18 hrs by CLSI method; assay type: functional; conditions: time 16-18 hrs
Staphylococcus aureus [2] = assay: Antibacterial activity against methicillin-resistant Staphylococcus aureus clinical isolate MRSA-11 measured after 16 to 18 hrs by CLSI method; assay type: functional; conditions: time 16-18 hrs
Staphylococcus aureus [3] = assay: Antibacterial activity against methicillin-resistant Staphylococcus aureus clinical isolate MRSA-13 measured after 16 to 18 hrs by CLSI method; assay type: functional; conditions: time 16-18 hrs
Staphylococcus aureus [4] = assay: Antibacterial activity against methicillin-resistant Staphylococcus aureus clinical isolate MRSA-14 measured after 16 to 18 hrs by CLSI method; assay type: functional; conditions: time 16-18 hrs
Staphylococcus aureus [5] = assay: Antibacterial activity against methicillin-resistant Staphylococcus aureus clinical isolate MRSA-16 measured after 16 to 18 hrs by CLSI method; assay type: functional; conditions: time 16-18 hrs
Staphylococcus aureus [6] = assay: Antibacterial activity against methicillin-resistant Staphylococcus aureus clinical isolate MRSA-17 measured after 16 to 18 hrs by CLSI method; assay type: functional; conditions: time 16-18 hrs
Staphylococcus aureus [7] = assay: Antibacterial activity against methicillin-resistant Staphylococcus aureus clinical isolate MRSA-18 measured after 16 to 18 hrs by CLSI method; assay type: functional; conditions: time 16-18 hrs
Staphylococcus aureus [8] = assay: Antibacterial activity against methicillin-resistant Staphylococcus aureus clinical isolate MRSA-20 measured after 16 to 18 hrs by CLSI method; assay type: functional; conditions: time 16-18 hrs
Staphylococcus aureus [9] = assay: Antibacterial activity against methicillin-resistant Staphylococcus aureus clinical isolate MRSA-21 measured after 16 to 18 hrs by CLSI method; assay type: functional; conditions: time 16-18 hrs
Staphylococcus aureus [10] = assay: Antibacterial activity against methicillin-resistant Staphylococcus aureus clinical isolate MRSA-22 measured after 16 to 18 hrs by CLSI method; assay type: functional; conditions: time 16-18 hrs
Staphylococcus aureus [11] = assay: Antibacterial activity against methicillin-resistant Staphylococcus aureus clinical isolate MRSA-23 measured after 16 to 18 hrs by CLSI method; assay type: functional; conditions: time 16-18 hrs
Escherichia coli = assay: Antibacterial activity against Escherichia coli ATCC25922 measured after 16 to 18 hrs by CLSI method; assay type: functional; conditions: time 16-18 hrs
[12] = Hemolytic activity in sheep erythrocytes incubated for 1 hr by absorbance based analysis; assay type: toxicity, cell-based, Ovis aries, Erythrocyte
[13] = Selectivity index, ratio of HC50 for hemolytic activity in sheep erythrocytes to MIC for antibacterial activity against Staphylococcus aureus ATCC 29213; assay type: toxicity, cell-based; conditions: read-out: Selectivity Index

Row | Structure (SMILES) | MIC (Staphylococcus aureus [1]) [µg/mL] | MIC (Staphylococcus aureus [2]) [µg/mL] | MIC (Staphylococcus aureus [3]) [µg/mL] | MIC (Staphylococcus aureus [4]) [µg/mL] | MIC (Staphylococcus aureus [5]) [µg/mL] | MIC (Staphylococcus aureus [6]) [µg/mL] | MIC (Staphylococcus aureus [7]) [µg/mL] | MIC (Staphylococcus aureus [8]) [µg/mL] | MIC (Staphylococcus aureus [9]) [µg/mL] | MIC (Staphylococcus aureus [10]) [µg/mL] | MIC (Staphylococcus aureus [11]) [µg/mL] | MIC (Escherichia coli) [µg/mL] | HC50 at 1 h [12] [µg/mL] | selectivity ratio [13]
1 | COc1cc(OCCCN2CCCCC2)c(CC=C(C)C)c2c1C(=O)CC(c1ccc(OCCCN3CCCCC3)cc1)O2 (stereo not given) | 64 (≈ 106 µM) | > 128 | > 128 | > 128 | 32 (≈ 52.9 µM) | > 128 | > 128 | > 128 | > 128 | > 128 | > 128 | > 128 | 467 | 7.3
2 | COc1cc(OCCCCN(CC(C)C)CC(C)C)c(CC=C(C)C)c2c1C(=O)CC(c1ccc(OCCCCN(CC(C)C)CC(C)C)cc1)O2 (stereo not given) | > 128 | > 128 | > 128 | > 128 | > 128 | > 128 | > 128 | > 128 | > 128 | > 128 | > 128 | > 128 | > 1280 | 
3 | COc1cc(OCCCN2CCCCC2C)c(CC=C(C)C)c2c1C(=O)CC(c1ccc(OCCCN3CCCCC3C)cc1)O2 (stereo not given) | 32 (≈ 50.6 µM) | 32 (≈ 50.6 µM) | 32 (≈ 50.6 µM) | 32 (≈ 50.6 µM) | 16 (≈ 25.3 µM) | 32 (≈ 50.6 µM) | 32 (≈ 50.6 µM) | 32 (≈ 50.6 µM) | 32 (≈ 50.6 µM) | 16 (≈ 25.3 µM) | 32 (≈ 50.6 µM) | > 128 | > 1280 | > 40
4 | COc1cc(OCCCCN2CCC(C)CC2)c(CC=C(C)C)c2c1C(=O)CC(c1ccc(OCCCCN3CCC(C)CC3)cc1)O2 (stereo not given) | 16 (≈ 24.2 µM) | 16 (≈ 24.2 µM) | 8 (≈ 12.1 µM) | 16 (≈ 24.2 µM) | 8 (≈ 12.1 µM) | 8 (≈ 12.1 µM) | 16 (≈ 24.2 µM) | 16 (≈ 24.2 µM) | 8 (≈ 12.1 µM) | 8 (≈ 12.1 µM) | 16 (≈ 24.2 µM) | > 128 | > 640 | > 40
5 | COc1cc(OCCCCCN2CCSCC2)c(CC=C(C)C)c2c1C(=O)CC(c1ccc(OCCCCCN3CCSCC3)cc1)O2 (stereo not given) | 32 (≈ 45.9 µM) | > 128 | > 128 | > 128 | > 128 | > 128 | > 128 | > 128 | > 128 | > 128 | > 128 | > 128 | > 640 | > 20
6 | CCCCN(CCCC)CCCCCOc1ccc(C2CC(=O)c3c(OC)cc(OCCCCCN(CCCC)CCCC)c(CC=C(C)C)c3O2)cc1 (stereo not given) | 4 (≈ 5.34 µM) | 8 (≈ 10.7 µM) | 4 (≈ 5.34 µM) | 4 (≈ 5.34 µM) | 4 (≈ 5.34 µM) | 4 (≈ 5.34 µM) | 8 (≈ 10.7 µM) | 4 (≈ 5.34 µM) | 8 (≈ 10.7 µM) | 8 (≈ 10.7 µM) | 8 (≈ 10.7 µM) | > 128 | 980 | 245
7 | COc1cc(OCCCN2CCN(C)CC2)c(CC=C(C)C)c2c1C(=O)CC(c1ccc(OCCCN3CCN(C)CC3)cc1)O2 (stereo not given) | 64 (≈ 101 µM) | 32 (≈ 50.4 µM) | 64 (≈ 101 µM) | 64 (≈ 101 µM) | 64 (≈ 101 µM) | 32 (≈ 50.4 µM) | 64 (≈ 101 µM) | 64 (≈ 101 µM) | 32 (≈ 50.4 µM) | 32 (≈ 50.4 µM) | 64 (≈ 101 µM) | > 128 | > 1280 | > 20
8 | CCCC[N+](C)(CCCC)CCCCOc1ccc(C2CC(=O)c3c(OC)cc(OCCCC[N+](C)(CCCC)CCCC)c(CC=C(C)C)c3O2)cc1.[I-].[I-] (stereo not given) | 0.5 | 0.5 | 0.5 | 0.5 | 0.25 | 0.25 | 0.5 | 0.5 | 0.5 | 1 | 0.5 | 32 | > 1280 | > 2640
9 | CCCCN(CCCC)CCCOc1ccc(C2CC(=O)c3c(OC)cc(OCCCN(CCCC)CCCC)c(CC=C(C)C)c3O2)cc1 (stereo not given) | 8 (≈ 11.5 µM) | 8 (≈ 11.5 µM) | 8 (≈ 11.5 µM) | 4 (≈ 5.77 µM) | 4 (≈ 5.77 µM) | 4 (≈ 5.77 µM) | 8 (≈ 11.5 µM) | 8 (≈ 11.5 µM) | 8 (≈ 11.5 µM) | 4 (≈ 5.77 µM) | 8 (≈ 11.5 µM) | > 128 | 810 | 101
10 | COc1cc(OCCCCN2CCOCC2)c(CC=C(C)C)c2c1C(=O)CC(c1ccc(OCCCCN3CCOCC3)cc1)O2 (stereo not given) | 32 (≈ 50.2 µM) | 64 (≈ 100 µM) | 64 (≈ 100 µM) | 64 (≈ 100 µM) | > 128 | 32 (≈ 50.2 µM) | 32 (≈ 50.2 µM) | 32 (≈ 50.2 µM) | 64 (≈ 100 µM) | 32 (≈ 50.2 µM) | 32 (≈ 50.2 µM) | > 128 | > 640 | > 20
11 | COc1cc(OCCCN(CC(C)C)CC(C)C)c(CC=C(C)C)c2c1C(=O)CC(c1ccc(OCCCN(CC(C)C)CC(C)C)cc1)O2 (stereo not given) | > 128 | 64 (≈ 92.3 µM) | > 128 | 64 (≈ 92.3 µM) | > 128 | > 128 | > 128 | > 128 | 32 (≈ 46.2 µM) | 32 (≈ 46.2 µM) | 32 (≈ 46.2 µM) | > 128 | > 1280 | 
12 | CCCN(CCC)CCCCOc1ccc(C2CC(=O)c3c(OC)cc(OCCCCN(CCC)CCC)c(CC=C(C)C)c3O2)cc1 (stereo not given) | 16 (≈ 24.1 µM) | 16 (≈ 24.1 µM) | 16 (≈ 24.1 µM) | 16 (≈ 24.1 µM) | 16 (≈ 24.1 µM) | 16 (≈ 24.1 µM) | 32 (≈ 48.1 µM) | 16 (≈ 24.1 µM) | 16 (≈ 24.1 µM) | 16 (≈ 24.1 µM) | 16 (≈ 24.1 µM) | > 128 | > 1280 | > 80
13 | COc1cc(OCCCCCN2CCCCC2)c(CC=C(C)C)c2c1C(=O)CC(c1ccc(OCCCCCN3CCCCC3)cc1)O2 (stereo not given) | 8 (≈ 12.1 µM) | 8 (≈ 12.1 µM) | 8 (≈ 12.1 µM) | 8 (≈ 12.1 µM) | 8 (≈ 12.1 µM) | 4 (≈ 6.05 µM) | 8 (≈ 12.1 µM) | 8 (≈ 12.1 µM) | 8 (≈ 12.1 µM) | 8 (≈ 12.1 µM) | 8 (≈ 12.1 µM) | > 128 | 151 | 18.9
14 | COc1cc(OCCCCCN2CCCCC2C)c(CC=C(C)C)c2c1C(=O)CC(c1ccc(OCCCCCN3CCCCC3C)cc1)O2 (stereo not given) | 32 (≈ 46.4 µM) | 16 (≈ 23.2 µM) | 16 (≈ 23.2 µM) | 16 (≈ 23.2 µM) | 8 (≈ 11.6 µM) | 8 (≈ 11.6 µM) | 16 (≈ 23.2 µM) | 16 (≈ 23.2 µM) | 8 (≈ 11.6 µM) | 16 (≈ 23.2 µM) | 16 (≈ 23.2 µM) | > 128 | 292 | 9.1
15 | CCCN(CCC)CCCOc1ccc(C2CC(=O)c3c(OC)cc(OCCCN(CCC)CCC)c(CC=C(C)C)c3O2)cc1 (stereo not given) | 16 (≈ 25.1 µM) | 16 (≈ 25.1 µM) | 8 (≈ 12.6 µM) | 16 (≈ 25.1 µM) | 8 (≈ 12.6 µM) | 8 (≈ 12.6 µM) | 16 (≈ 25.1 µM) | 16 (≈ 25.1 µM) | 16 (≈ 25.1 µM) | 16 (≈ 25.1 µM) | 16 (≈ 25.1 µM) | > 128 | > 1280 | > 80
16 | CCCCN(CCCC)CCCCOc1ccc(C2CC(=O)c3c(OC)cc(OCCCCN(CCCC)CCCC)c(CC=C(C)C)c3O2)cc1 (stereo not given) | 4 (≈ 5.55 µM) | 8 (≈ 11.1 µM) | 8 (≈ 11.1 µM) | 4 (≈ 5.55 µM) | 4 (≈ 5.55 µM) | 4 (≈ 5.55 µM) | 8 (≈ 11.1 µM) | 4 (≈ 5.55 µM) | 8 (≈ 11.1 µM) | 8 (≈ 11.1 µM) | 8 (≈ 11.1 µM) | > 128 | 1200 | 300
17 | COc1cc(OCCCCCN(CC(C)C)CC(C)C)c(CC=C(C)C)c2c1C(=O)CC(c1ccc(OCCCCCN(CC(C)C)CC(C)C)cc1)O2 (stereo not given) | > 128 | > 128 | > 128 | > 128 | > 128 | > 128 | > 128 | > 128 | > 128 | > 128 | > 128 | > 128 | > 1280 | 
18 | COc1cc(OCCCN2CCOCC2)c(CC=C(C)C)c2c1C(=O)CC(c1ccc(OCCCN3CCOCC3)cc1)O2 (stereo not given) | > 128 | > 128 | > 128 | > 128 | > 128 | > 128 | > 128 | > 128 | > 128 | > 128 | > 128 | > 128 | > 1280 | 
19 | C[C@@H](O)[C@H]1C(=O)N2C(C(=O)O)=C(S[C@@H]3CN[C@H](C(=O)N(C)C)C3)[C@H](C)[C@H]12 [MEROPENEM] |  |  |  |  |  |  |  |  |  |  |  | 0.062 (≈ 0.162 µM) |  | 
20 | COc1cc(O)c(CC=C(C)C)c2c1C(=O)CC(c1ccc(O)cc1)O2 (stereo not given) [ISOXANTHOHUMOL] | > 64 | 64 (≈ 181 µM) | > 64 | > 64 | 64 (≈ 181 µM) | > 64 | > 64 | 64 (≈ 181 µM) | 64 (≈ 181 µM) | 64 (≈ 181 µM) | 64 (≈ 181 µM) | > 64 | > 320 | 
21 | COc1cc(OCCCN2CCSCC2)c(CC=C(C)C)c2c1C(=O)CC(c1ccc(OCCCN3CCSCC3)cc1)O2 (stereo not given) | > 128 | > 128 | > 128 | > 128 | > 128 | > 128 | > 128 | > 128 | > 128 | > 128 | > 128 | > 128 | > 640 | 

Reference: ChEMBL document CHEMBL5505992, “Novel membrane-targeting isoxanthohumol-amine conjugates for combating methicillin-resistant Staphylococcus aureus (MRSA) infections” (Eur J Med Chem, 2024)
